Patent publication US12428402B2, “Resmetirom crystal, preparation method for same, and uses thereof” (CRYSTAL PHARMACEUTICAL (SUZHOU) CO., LTD., priority 2019, dated 2025)
Values after ≈ are worked out from the molar mass of the structure shown. Values joined by “and” are separate entries in the source; they are usually repeats but may differ in a detail not shown here. Equal values may be shown once. “Also recorded” adds a separate entry of the source.

Columns and labels:
Assay type in all cases: physicochemical
[1] = Physical stability upon grinding (XRPD); details: ground manually for 5 minutes in a mortar
Protocol: Form CSV and Form I were grounded manually for 5 minutes in a mortar. Crystalline forms before and after grinding were checked by XRPD. […] Compared with Form I, Form CSV has better physical stability upon grinding.

[2] = Physical and chemical stability on storage (XRPD, HPLC)
Protocol: A certain amount of Form CSIV of the present disclosure was sealed up and stored under different conditions of 25° C./60% RH, 40° C./75% RH, and 60° C./75% RH. Crystalline form and chemical purity were checked by XRPD and HPLC, respectively.
A certain amount of Form CSV of the present disclosure was stored under different conditions of 40° C./75% RH and 60° C./75% RH in open and sealed dishes. Crystalline form and chemical purity were checked by XRPD and HPLC, respectively.

[3] = Kinetic solubility in SGF; details: for 1 hour Concentration: equilibrated 1 h
Protocol: When solubility test is used to predict the in vivo performance of a drug, it is critical to simulate in vivo conditions as closely as possible. SGF can be used to simulate the condition in vivo and predict the effects of eating, thus solubility in this medium is closer to that in vivo.
Approximately 5-20 mg of Form CSIV and 5-20 mg Form CSV of the present disclosure were suspended into 2.0 mL of SGF to get suspensions. After equilibrated for 1 h and 24 h, concentrations (μg/mL) of these solutions were measured by UPLC.

[4] = Hygroscicity by dynamic vapor sorption (DVS); details: for hygroscopicity class / weight gain: 25° C./80% RH; for hygroscopicity class: Chinese Pharmacopoeia definition; for weight gain: DVS; for crystalline state before and after DVS: cycle of 0-95% RH
Protocol: Dynamic Vapor Sorption (DVS) was measured via an SMS (Surface Measurement Systems Ltd.) intrinsic DVS instrument. Typical Parameters for DVS test are as follows: • Temperature: 25° C. • Gas and flow rate: N2, 200 mL/min • RH range: 0% RH to 95% RH
Dynamic vapor sorption (DVS) analyzer was applied to test hygroscopicity of Form CSIV and Form CSV with certain amount of samples. The weight gains at each relative humidity were recorded in a cycle of 0-95% RH. […] The weight gain of Form CSV under 25° C./80% RH is 0.13%. […] The DVS curve of Form CSIV and Form CSV are shown in FIG. 9 and FIG. 10, respectively.
Description and definition of hygroscopicity (general notice 9103 drug hygroscopicity test guidelines in 2020 edition of Chinese Pharmacopoeia, test at 25° C.±1° C., 80% RH±2% RH. The definition of hygroscopicity in the 9th European Pharmacopoeia 5.11 is consistent with the Chinese Pharmacopoeia). • deliquescent: Sufficient water is absorbed to form a solution; • very hygroscopic: Increase in mass is equal to or greater than 15%; • hygroscopic: Increase in mass is less than 15% and equal to or greater than 2%; • slightly hygroscopic: Increase in mass is less than 2% and equal to or greater than 0.2%. • non hygroscopic or almost non hygroscopic: Increase in mass is less than 0.2%.

[5] = Compressibility (manual tablet press, tensile strength); details: for Diameter / Hardness / Thickness: 80 mg, φ6 mm round tooling, 10 kN, 24 h at room temperature; for Diameter / Hardness / Thickness / Tensile strength: tablets 1 and 2; for Average tensile strength / Tensile strength: T=2H/πDL
Protocol: ENERPAC manual tablet press was used for compression. 80 mg of Form CSIV and 80 mg of Form I were weighed and added into the dies of a φ6 mm round tooling, compressed at 10 kN manually, then stored at room temperature for 24 h. Diameter (D) and thickness (L) were tested with caliper. When elastic recovery is complete, hardness (H) was tested with an intelligent tablet hardness tester. Tensile strength of the powder was calculated with the following formula: T=2H/πDL. Under a certain force, the greater the tensile strength, the better the compressibility.

[6] = 40° C./75% RH (open), one month
[7] = 40° C./75% RH (sealed), one month
[8] = 60° C./75% RH (sealed), one week

Row | Crystalline form ([2]; Initial) | 1 hour Concentration ([3]; UPLC) [µg/mL] | solubility relative to that of Form I ([3]; equilibrated 1 hour) [times] | solubility relative to that of Form I ([3]; equilibrated 24 hours) [times] | weight gain [4] [%] | crystalline state before and after DVS [4] | Diameter [5] | Hardness [5] | Thickness [5] | Average tensile strength ([5]; compressed at 10 kN) [MPa] | Tensile strength ([5]; compressed at 10 kN) | SMILES | crystalline state after grinding [1] | hygroscopicity class [4] | further results
1 | Form CSV | 7.8 | 7.1 | 8.7 | 0.13 | remains unchanged before and after DVS | – | – | – | – | – | CC(C)c1cc(Oc2c(Cl)cc(-n3nc(C#N)c(=O)[nH]c3=O)cc2Cl)n[nH]c1=O [Form CSV, 2-(3,5-dichloro-4-((5-isopropyl-6-oxo-1,6-dihydropyridazin-3-yl)oxy)phenyl)-3,5-dioxo-2,3,4,5-tetrahydro-1,2,4-triazine-6-carbonitrile] | does not change before and after grinding; also recorded: doesn't change after grinding | non hygroscopic or almost non-hygroscopic | Crystalline form [2, 6]: Form CSV; Purity [2, 6]: 99.81%; Crystalline form [2, 7]: Form CSV; Purity [2, 7]: 99.85%; chemical purity during storage ([2]; 40° C./75% RH one month, 60° C./75% RH one week): above 99.8%; time for which the form is stable ([2]; 40° C./75% RH open and sealed dishes, in words): at least one months; time for which crystalline state doesn't change ([2]; 40° C./75% RH sealed, in words): at least one month; Crystalline form ([2]; 60° C./75% RH (open), one week): Form CSV; Purity ([2]; 60° C./75% RH (open), one week): 99.86%; Crystalline form [2, 8]: Form CSV; Purity [2, 8]: 99.87%; time for which the form is stable / crystalline form doesn't change ([2]; 60° C./75% RH open and sealed, in words): at least one week; 24 hours Concentration ([3]; equilibrated 24 h, UPLC): 9.6 µg/mL
2 | – | – | – | – | – | – | 6.01 mm and 6.11 mm | 8.7 kg and 7.9 kg | 2.11 mm and 2.00 mm | 0.43 | 0.44 MPa and 0.41 MPa | CC(C)c1cc(Oc2c(Cl)cc(-n3nc(C#N)c(=O)[nH]c3=O)cc2Cl)n[nH]c1=O [Form I, 2-(3,5-dichloro-4-((5-isopropyl-6-oxo-1,6-dihydropyridazin-3-yl)oxy)phenyl)-3,5-dioxo-2,3,4,5-tetrahydro-1,2,4-triazine-6-carbonitrile, reference compound] | almost transform into amorphous after grinding; also recorded: transforms into amorphous after grinding | – | –
3 | Form CSIV | 11.7 | 10.6 | 5.0 | 0.58 | remains unchanged before and after DVS | 6.03 mm and 6.04 mm | 28.3 kg and 27.7 kg | 2.12 mm | 1.40 | 1.41 MPa and 1.38 MPa | CC(C)c1cc(Oc2c(Cl)cc(-n3nc(C#N)c(=O)[nH]c3=O)cc2Cl)n[nH]c1=O [Form CSIV, 2-(3,5-dichloro-4-((5-isopropyl-6-oxo-1,6-dihydropyridazin-3-yl)oxy)phenyl)-3,5-dioxo-2,3,4,5-tetrahydro-1,2,4-triazine-6-carbonitrile] | – | slightly hygroscopic (Increase in mass is less than 2% and equal to or greater than 0.2%) | time for which the form is stable / crystalline state doesn't change ([2]; 25° C./60% RH sealed): at least 6 months; Crystalline form ([2]; 25° C./60% RH sealed, 6 months): Form CSIV; time for which the form is stable / crystalline state doesn't change ([2]; 40° C./75% RH sealed): at least 6 months; Crystalline form ([2]; 40° C./75% RH sealed, 6 months): Form CSIV; Purity ([2]; 40° C./75% RH sealed, 6 months): 99.76%; time for which crystalline state doesn't change ([2]; 60° C./75% RH sealed): at least 1 month; time for which the form is stable ([2]; 60° C./75% RH sealed, in words): at least one month; Crystalline form ([2]; 60° C./75% RH sealed, one month): Form CSIV; Purity ([2]; Initial): 99.80%; solubility thermodynamic at 24 h ([3]; simulated gastric fluid, thermodynamic from solid, equilibrated 24 h, UPLC, read-out: 24 hours Concentration): 5.5 µg/mL (≈ 12.6 µM); crystalline state before and after tableting ([5]; compressed at 10 kN, XRPD): remains unchanged before and after tableting
